Data on 16 compounds can be found in PubChem BioAssay AID248 (DTP/NCI, 2004).

The test system of this experiment is L1210 leukemia ip in BDF1 mice, survival T/C. Description: NCI In Vivo Anticancer Drug Screen. Data for tumor model L1210 Leukemia (intraperitoneal) in B6D2F1 (BDF1) mice. The note with it: endpoint: mean survival time, higher = longer survival. The method, boiled down: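 Tumor cells were implanted, animals were treated, and survival was followed. The result divides the treated measurement by the vehicle-control measurement.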

[1] abbreviates: dose: 100.0 mg/kg/injection, schedule: Q01DX009 (ip), vehicle: Klucel (hydroxypropylcellulose) (HPC).
The mark [2] stands for this setting: dose: 100.0 mg/kg/injection, schedule: Q04DX003 (ip), vehicle: Klucel (hydroxypropylcellulose) (HPC).
Where [3] appears, read: dose: 200.0 mg/kg/injection, schedule: Q01DX009 (ip), vehicle: Klucel (hydroxypropylcellulose) (HPC).
The mark [4] stands for this setting: dose: 200.0 mg/kg/injection, schedule: Q04DX003 (ip), vehicle: Klucel (hydroxypropylcellulose) (HPC).
[5] abbreviates: dose: 400.0 mg/kg/injection, schedule: Q01DX009 (ip), vehicle: Klucel (hydroxypropylcellulose) (HPC).
[6] abbreviates: dose: 400.0 mg/kg/injection, schedule: Q04DX003 (ip), vehicle: Klucel (hydroxypropylcellulose) (HPC).
Where [7] appears, read: dose: 100.0 mg/kg/injection, schedule: Q04DX003 (ip), vehicle: acetone.
[8] abbreviates: dose: 200.0 mg/kg/injection, schedule: Q04DX003 (ip), vehicle: acetone.
Where [9] appears, read: dose: 400.0 mg/kg/injection, schedule: Q04DX003 (ip), vehicle: acetone.
Where [10] appears, read: dose: 100.0 mg/kg/injection, schedule: Q01DX001 (ip), vehicle: Klucel (hydroxypropylcellulose) (HPC).
The mark [11] stands for this setting: dose: 200.0 mg/kg/injection, schedule: Q01DX001 (ip), vehicle: Klucel (hydroxypropylcellulose) (HPC).
Setting [12] is: dose: 100.0 mg/kg/injection, schedule: Q04DX002 (ip), vehicle: Klucel (hydroxypropylcellulose) (HPC).
The mark [13] stands for this setting: dose: 200.0 mg/kg/injection, schedule: Q04DX002 (ip), vehicle: Klucel (hydroxypropylcellulose) (HPC).
The mark [14] stands for this setting: dose: 400.0 mg/kg/injection, schedule: Q04DX002 (ip), vehicle: Klucel (hydroxypropylcellulose) (HPC).

“And” between values parts separate entries of the source, which are not always exact repeats. Identical values can stand only once. Toxic doses and inconclusive results are not listed.

With `CC[C@@]1(O)C(=O)OCc2c1cc1n(c2=O)Cc2cc3cc(OC)ccc3nc2-1`, the T/C by setting is: (dose: 0.36 mg/kg/injection, schedule: Q01DX001 (ip), vehicle: saline) 114 % of control; (dose: 0.55 mg/kg/injection, schedule: Q01DX001 (ip), vehicle: saline) 122 % of control; (dose: 0.83 mg/kg/injection, schedule: Q01DX001 (ip), vehicle: saline) 120 % of control; (dose: 0.97 mg/kg/injection, schedule: Q01DX009 (ip), vehicle: saline) 203 % of control; (dose: 1.4 mg/kg/injection, schedule: Q01DX009 (ip), vehicle: saline) 225 % of control; (dose: 2.2 mg/kg/injection, schedule: Q01DX009 (ip), vehicle: saline) 97 % of control. The T/C (dose: 2.5 mg/kg/injection, schedule: Q01DX001 (ip), vehicle: saline) is 162 % of control; the T/C (dose: 4.4 mg/kg/injection, schedule: Q01DX001 (ip), vehicle: saline) was 160 % of control; the T/C (dose: 5.0 mg/kg/injection, schedule: Q01DX001 (ip), vehicle: saline) was 176 % of control; the T/C (dose: 6.6 mg/kg/injection, schedule: Q01DX001 (ip), vehicle: saline) was 178 % of control; the T/C (dose: 10.0 mg/kg/injection, schedule: Q01DX001 (ip), vehicle: saline) was 172 % of control and 250 % of control; the T/C (dose: 15.0 mg/kg/injection, schedule: Q01DX001 (ip), vehicle: saline) was 122 % of control. Further, the T/C was 112 % of control (dose: 20.0 mg/kg/injection, schedule: Q01DX001 (ip), vehicle: saline); 95 % of control (dose: 36.0 micrograms/kg/injection, schedule: Q01DX009 (ip), vehicle: saline); 104 % of control (dose: 56.0 micrograms/kg/injection, schedule: Q01DX009 (ip), vehicle: saline); 115 % of control (dose: 84.0 micrograms/kg/injection, schedule: Q01DX009 (ip), vehicle: saline); 121 % of control (dose: 127.0 micrograms/kg/injection, schedule: Q01DX009 (ip), vehicle: saline); 123 % of control (dose: 287.0 micrograms/kg/injection, schedule: Q01DX009 (ip), vehicle: saline). Besides, the T/C (dose: 430.0 micrograms/kg/injection, schedule: Q01DX009 (ip), vehicle: saline) is 117 % of control and the T/C (dose: 646.0 micrograms/kg/injection, schedule: Q01DX009 (ip), vehicle: saline) was 150 % of control.
Consider `CCCCCCCCCCCCCCCCCCNC(=O)N(CC)c1ccccc1`, for which the T/C under setting [1] was 101 % of control; the T/C under setting [2] was 93 % of control; the T/C under setting [3] is 98 % of control; the T/C under setting [4] is 101 % of control; the T/C under setting [5] was 106 % of control; the T/C under setting [6] is 92 % of control.
Regarding `Cc1cc([N+](=O)[O-])ccc1NC(=O)c1ccccc1`, the T/C is 94 % of control under setting [7], 100 % of control under setting [8] and 93 % of control under setting [9].
With `CC(CCl)=C(B1OC(C)(C)C(C)(C)O1)B1OC(C)(C)C(C)(C)O1`, the T/C is 110 % of control under setting [10]; 94 % of control under setting [11]; 92 % of control (dose: 400.0 mg/kg/injection, schedule: Q01DX001 (ip), vehicle: Klucel (hydroxypropylcellulose) (HPC)).
Take `Cc1cccc(P(=O)(c2ccccc2)c2ccccc2)c1` (tested in a mixture with another compound): the T/C is 104 % of control (dose: 100.0 mg/kg/injection, schedule: Q04DX002 (ip), vehicle: saline with Tween-80); 96 % of control (dose: 200.0 mg/kg/injection, schedule: Q04DX002 (ip), vehicle: saline with Tween-80); 88 % of control (dose: 400.0 mg/kg/injection, schedule: Q04DX002 (ip), vehicle: saline with Tween-80).
`O=C(O)c1ccnc(-c2ccc(Cl)cc2)c1`: the T/C reads like this: (dose: 100.0 mg/kg/injection, schedule: Q04DX003 (ip), vehicle: saline) 90 % of control; (dose: 200.0 mg/kg/injection, schedule: Q04DX003 (ip), vehicle: saline) 92 % of control.
Turning to `O=C(COc1ccc(Cl)cc1C(=O)O)NCc1ccc(Cl)cc1`, the T/C reads like this: (dose: 100.0 mg/kg/injection, schedule: Q01DX009 (ip), vehicle: gum acacia) 92 % of control; (dose: 200.0 mg/kg/injection, schedule: Q01DX009 (ip), vehicle: gum acacia) 106 % of control; (dose: 400.0 mg/kg/injection, schedule: Q01DX009 (ip), vehicle: gum acacia) 92 % of control.
As to `O=C(Nc1ccccn1)Nc1cccc2ccccc12`, the T/C under setting [12] was 103 % of control, the T/C under setting [13] is 97 % of control and the T/C under setting [14] was 87 % of control.
For `CC(CC=C(CCC(C)CC(C)(C)C)CCC(C)CC(C)(C)C)CC(C)(C)C` (centres undefined), the T/C was 99 % of control (dose: 75.0 mg/kg/injection, schedule: Q01DX001 (ip), vehicle: saline with Tween-80); 100 % of control (dose: 150.0 mg/kg/injection, schedule: Q01DX001 (ip), vehicle: saline with Tween-80); 97 % of control (dose: 300.0 mg/kg/injection, schedule: Q01DX001 (ip), vehicle: saline with Tween-80).
As for `NC(CCSC(c1ccccc1)(c1ccccc1)c1ccccc1)C(=O)O` (centres undefined), the T/C was 94 % of control and 103 % of control (dose: 50.0 mg/kg/injection, schedule: Q01DX009 (ip), vehicle: saline); 95 % of control and 107 % of control (dose: 100.0 mg/kg/injection, schedule: Q01DX009 (ip), vehicle: saline); 97 % of control and 106 % of control (dose: 200.0 mg/kg/injection, schedule: Q01DX009 (ip), vehicle: saline); 100 % of control and 108 % of control (dose: 400.0 mg/kg/injection, schedule: Q01DX009 (ip), vehicle: saline).
Take `Cc1ccc(S(=O)(=O)Nc2cccc3cc(Cl)ccc23)cc1`: the T/C under setting [7] is 94 % of control, the T/C under setting [8] was 105 % of control and the T/C under setting [9] is 91 % of control.
For `NOCc1nnc(Nc2ccccc2)s1`, the T/C is 92 % of control (dose: 100.0 mg/kg/injection, schedule: Q01DX009 (ip), vehicle: saline with Tween-80) and 90 % of control (dose: 200.0 mg/kg/injection, schedule: Q01DX009 (ip), vehicle: saline with Tween-80).
Regarding `Cn1ccnc1CC(C)(O)c1ccccc1` (centres undefined), the T/C runs as follows: under setting [10], 92 % of control; under setting [1], 97 % of control and 98 % of control; under setting [12], 96 % of control; under setting [11], 97 % of control; under setting [3], 108 % of control and 88 % of control; under setting [13], 108 % of control. For the same compound, the T/C is, setting by setting: under setting [5], 102 % of control; under setting [14], 103 % of control.
`C=C/C=C\N(CC)CC`: the T/C was 98 % of control (dose: 6.25 mg/kg/injection, schedule: Q01DX009 (ip), vehicle: water); 97 % of control (dose: 12.5 mg/kg/injection, schedule: Q01DX009 (ip), vehicle: water); 104 % of control (dose: 25.0 mg/kg/injection, schedule: Q01DX009 (ip), vehicle: water); 95 % of control (dose: 25.0 mg/kg/injection, schedule: Q04DX003 (ip), vehicle: water); 98 % of control (dose: 50.0 mg/kg/injection, schedule: Q01DX009 (ip), vehicle: water); 88 % of control (dose: 50.0 mg/kg/injection, schedule: Q04DX003 (ip), vehicle: water). Under “dose: 100.0 mg/kg/injection, schedule: Q04DX003 (ip), vehicle: water”, the T/C is 100 % of control.
For `O=C1CCCCCCCCCCCCCCO1`, the T/C was 96 % of control under setting [12], 90 % of control under setting [13] and 93 % of control under setting [14].
As for `CCOC(=O)C(C)C(OCC)OCC` (centres undefined), the T/C is 96 % of control under setting [1]; 90 % of control under setting [2]; 104 % of control under setting [3]; 103 % of control under setting [4]; 89 % of control under setting [5]; 107 % of control under setting [6].
